{"source": "patent US20250186405A1", "about": "“Compound For Use In Treating Narcolepsy” (Alkermes, Inc., priority 2023, published 2025)", "key": {"[1]": {"test_system": "subjects with narcolepsy type-2 (NT2)", "conditions": "human, in vivo", "quoted_text": "Part 5 consisted of a 4-way, 4-period crossover study design in approximately 8 subjects (2 subjects per sequence; minimum of 4 subjects with 1 subject per sequence). Subjects were randomized 1:1:1:1 to 1 of 4 sequences with 4 treatment periods (3 single doses of Compound A and 1 dose of matching placebo), with up to 48 hours of washout between treatments. Treatments were administered under fasted state.\nSubjects were randomized to 1 of 4 sequences. […] In each period, subjects were administered a single dose of study drug (either Compound A or placebo) as per the randomization schedule with approximately 240 mL of noncarbonated water following overnight fasting. No food was given for at least 3 hours after dose administration (i.e., fast can be broken after the 3-hour PK time point is collected). Water was allowed ad libitum except for 1 hour before and 1 hour after study drug administration. Safety assessments including AEs, safety ECGs, vital signs, and clinical laboratory tests were conducted, and plasma PK samples were collected. Furthermore, BP and HR were monitored once every hour for 12 hours on the dosing days.\nAdverse events (AEs) and serious adverse events (SAEs) were monitored continuously until the completion of the study.\nNine subjects with NT2 were dosed in Part 5 (POC in NT2) in a randomized 4-sequence 4-period cross-over design. Each dose of Compound A or matching placebo was separated by 2 days. A 14-day washout period preceded the treatment period and included discontinuation of narcolepsy medications. All 9 subjects underwent the washout period and received at least one dose of Compound A. All subjects completed all 4-way randomized crossover periods."}, "[2]": {"experiment": "Part 5 NT2: plasma pharmacokinetics, single doses", "type": "in vivo, human", "conditions": "for Cmax / AUC(0-t) / Tmax: human, oral; for Cmax / AUC(0-t): geometric mean; for AUC(0-t): read-out: AUC0-24; for Tmax: plasma", "method": "(§1) Treatments were administered under fasted state. Dose levels were as follows:\n(§2) Subjects were randomized to 1 of 4 sequences.\n(§3) Blood samples (up to 5 mL per sample) were collected for PK analysis of Compound A and its metabolite(s). The actual time of sample collection was recorded. The PK samples of the subjects randomized to placebo treatment were not analyzed. Any remaining plasma PK samples were used to explore the presence of any additional metabolites and/or biomarkers.\n(§4) Plasma and urine concentrations of Compound A and its metabolite(s) were measured using a validated high-performance liquid chromatography with tandem mass spectrometry.\n(§5) The PK population was used for summaries of plasma Compound A and its metabolite(s) concentrations and for analyses, summaries, and listing of PK parameters. Dose proportionality for Cmax, AUC0-t, and AUC0-∞ was evaluated using a linear model of logarithmically transformed values to assess the slope parameter, and the 95% CI for the slope was estimated. Where a 95% CI of the slope includes 1, it was considered as evidence of dose proportionality for that PK parameter."}, "[3]": {"experiment": "Part 1 SAD: plasma pharmacokinetics after single oral dose", "type": "in vivo, human", "conditions": "for CL/F / AUC(0-t) / Cmax / AUC(0-inf) / half-life / Vd/F / concentration at 8 h: geometric mean; for AUC(0-t) / Cmax / AUC(0-inf) / half-life / Vd/F / concentration at 8 h / Tmax: human, plasma; for Vd/F: read-out: Vz/F; for concentration at 8 h: read-out: C8 (concentration at 8-hour post dose)", "method": "There were approximately 8 subjects per cohort. Dose levels were as follows:\nas §3, §4\nThe plasma PK parameters of Compound A and its metabolite(s) were determined from the plasma concentration-time profiles for all evaluable subjects. Actual sampling times, rather than scheduled sampling times, were used in all computations involving sampling times. The below lower limit of quantitation concentrations were set to zero prior to PK parameter estimation.\nThe PK population was used for summaries of plasma Compound A and its metabolite(s) concentrations and for analyses, summaries, and listing of PK parameters. Dose proportionality for Cmax, AUC0-t, and AUC0-∞ was evaluated using a linear model of logarithmically transformed values to assess the slope parameter, and the 95% CI for the slope was estimated. Where the 95% CI of the slope includes 1, it was considered as evidence of dose proportionality for that PK parameter."}, "[4]": {"experiment": "Part 6 IH: plasma pharmacokinetics, single doses", "type": "in vivo, human", "conditions": "for Cmax / AUC(0-t) / Tmax: human, oral, plasma; for Cmax / AUC(0-t): geometric mean; for AUC(0-t): read-out: AUC0-24", "method": "as §1, §2, §3, §4, §5"}, "[5]": {"conditions": "1 mg single dose (low end of 1 to 50 mg)"}, "[6]": {"conditions": "50 mg single dose (high end of 1 to 50 mg)"}}, "note": "Where two headings read alike, the source gives them in different places."}
{"compound": "CS(=O)(=O)N[C@H]1CCCN2C(=O)COc3ccccc3C3CCC(CC3)OCC12", "note": "(stereo partly drawn) [Compound A, N-[(4S,4aR,7α,10α)-1,2,3,4,4a,5,7,8,9,10,16,17-dodecahydro-17-oxo-7,10-ethanopyrido[1,2-d][1,7,4]benzodioxaazacyclotridecin-4-yl]methanesulfonamide]", "values": [{"measurement": "TEAE by Preferred Term: Influenza", "setting": "[1]", "result": "1 (11.1) n (%)"}, {"measurement": "fold change in AUC and Cmax for 5-fold change in dose", "setting": "[2]; NT2 patients, 5 to 25 mg", "result": "approximately 3 fold"}, {"measurement": "Cmax", "setting": "[2]; 5 mg, NT2, plasma, n = 8", "result": 13.4, "unit": "ng/mL"}, {"measurement": "AUC(0-t)", "setting": "[2]; 5 mg, NT2, plasma, n = 8", "result": 78.1, "unit": "ng·h/mL"}, {"measurement": "Cmax", "setting": "[2]; 12 mg, NT2, plasma, n = 8", "result": 24, "unit": "ng/mL"}, {"measurement": "AUC(0-t)", "setting": "[2]; 12 mg, NT2, plasma, n = 8", "result": 185, "unit": "ng·h/mL"}, {"measurement": "Cmax", "setting": "[2]; 25 mg, NT2, plasma, N = 9", "result": 38, "unit": "ng/mL"}, {"measurement": "AUC(0-t)", "setting": "[2]; 25 mg, NT2, plasma, N = 9", "result": 231, "unit": "ng·h/mL"}, {"measurement": "Tmax", "setting": "[2]; 5 mg, NT2, plasma, median, n = 8, read-out: Tmax", "result": 1.75, "unit": "h"}, {"measurement": "Tmax", "setting": "[2]; 12 mg, NT2, plasma, median, n = 8, read-out: Tmax", "result": 2, "unit": "h"}, {"measurement": "Tmax", "setting": "[2]; 25 mg, NT2, plasma, median, N = 9, read-out: Tmax", "result": 3, "unit": "h"}, {"measurement": "Tmax", "setting": "[2]; 25 mg, NT2 patients, 5, 12, 25 mg, read-out: median tmax, range across doses", "result": "1.75 to 3", "unit": "h"}, {"measurement": "geometric mean AUC0-inf/D", "setting": "[3]; [5]", "result": 11.6}, {"measurement": "geometric mean Cmax/D", "setting": "[3]; [5]", "result": 3.2}, {"measurement": "CL/F", "setting": "[3]; 1 mg single dose, N = 5", "result": 86.0, "unit": "L/h"}, {"measurement": "CL/F", "setting": "[3]; 3 mg single dose, N = 3", "result": 95.6, "unit": "L/h"}, {"measurement": "CL/F", "setting": "[3]; 8 mg single dose, N = 4", "result": 96.4, "unit": "L/h"}, {"measurement": "CL/F", "setting": "[3]; 15 mg single dose, N = 5", "result": 89.8, "unit": "L/h"}, {"measurement": "CL/F", "setting": "[3]; 25 mg single dose", "result": 91.1, "unit": "L/h"}, {"measurement": "geometric mean AUC0-inf/D", "setting": "[3]; [6]", "result": 10.1}, {"measurement": "geometric mean Cmax/D", "setting": "[3]; [6]", "result": 0.59}, {"measurement": "CL/F", "setting": "[3]; 50 mg single dose, N = 2", "result": 99.3, "unit": "L/h"}, {"measurement": "AUC(0-t)", "setting": "[3]; oral, 1 mg single dose", "result": 12.3, "unit": "ng·h/mL"}, {"measurement": "Cmax", "setting": "[3]; oral, 1 mg single dose", "result": 3.23, "unit": "ng/mL"}, {"measurement": "AUC(0-inf)", "setting": "[3]; oral, 1 mg single dose, N = 5", "result": 11.6, "unit": "ng·h/mL"}, {"measurement": "half-life", "setting": "[3]; oral, 1 mg single dose, N = 5", "result": 2.79, "unit": "h"}, {"measurement": "Vd/F", "setting": "[3]; oral, 1 mg single dose, N = 5", "result": 346, "unit": "L"}, {"measurement": "concentration at 8 h", "setting": "[3]; oral, 1 mg single dose", "result": 0.337, "unit": "ng/mL"}, {"measurement": "Tmax", "setting": "[3]; oral, 1 mg single dose, median, read-out: Tmax", "result": 1.5, "unit": "h"}, {"measurement": "AUC(0-t)", "setting": "[3]; oral, 3 mg single dose", "result": 36.6, "unit": "ng·h/mL"}, {"measurement": "Cmax", "setting": "[3]; oral, 3 mg single dose", "result": 6.15, "unit": "ng/mL"}, {"measurement": "AUC(0-inf)", "setting": "[3]; oral, 3 mg single dose, N = 3", "result": 31.4, "unit": "ng·h/mL"}, {"measurement": "half-life", "setting": "[3]; oral, 3 mg single dose, N = 3", "result": 2.31, "unit": "h"}, {"measurement": "Vd/F", "setting": "[3]; oral, 3 mg single dose, N = 3", "result": 318, "unit": "L"}, {"measurement": "concentration at 8 h", "setting": "[3]; oral, 3 mg single dose", "result": 1.24, "unit": "ng/mL"}, {"measurement": "Tmax", "setting": "[3]; oral, 3 mg single dose, median, read-out: Tmax", "result": 1.5, "unit": "h"}, {"measurement": "AUC(0-t)", "setting": "[3]; oral, 8 mg single dose", "result": 81.3, "unit": "ng·h/mL"}, {"measurement": "Cmax", "setting": "[3]; oral, 8 mg single dose", "result": 11.5, "unit": "ng/mL"}, {"measurement": "AUC(0-inf)", "setting": "[3]; oral, 8 mg single dose, N = 4", "result": 83, "unit": "ng·h/mL"}, {"measurement": "half-life", "setting": "[3]; oral, 8 mg single dose, N = 4", "result": 16, "unit": "h"}, {"measurement": "Vd/F", "setting": "[3]; oral, 8 mg single dose, N = 4", "result": 2220, "unit": "L"}, {"measurement": "concentration at 8 h", "setting": "[3]; oral, 8 mg single dose", "result": 2.47, "unit": "ng/mL"}, {"measurement": "Tmax", "setting": "[3]; oral, 8 mg single dose, median, read-out: Tmax", "result": 2, "unit": "h"}, {"measurement": "AUC(0-t)", "setting": "[3]; oral, 15 mg single dose", "result": 165, "unit": "ng·h/mL"}, {"measurement": "Cmax", "setting": "[3]; oral, 15 mg single dose", "result": 22.1, "unit": "ng/mL"}, {"measurement": "AUC(0-inf)", "setting": "[3]; oral, 15 mg single dose, N = 5", "result": 167, "unit": "ng·h/mL"}, {"measurement": "half-life", "setting": "[3]; oral, 15 mg single dose, N = 5", "result": 10.1, "unit": "h"}, {"measurement": "Vd/F", "setting": "[3]; oral, 15 mg single dose, N = 5", "result": 1300, "unit": "L"}, {"measurement": "concentration at 8 h", "setting": "[3]; oral, 15 mg single dose", "result": 4.07, "unit": "ng/mL"}, {"measurement": "Tmax", "setting": "[3]; oral, 15 mg single dose, median, read-out: Tmax", "result": 2.5, "unit": "h"}, {"measurement": "AUC(0-inf)", "setting": "[3]; oral, 25 mg single dose", "result": 274, "unit": "ng·h/mL"}, {"measurement": "AUC(0-t)", "setting": "[3]; oral, 25 mg single dose", "result": 241, "unit": "ng·h/mL"}, {"measurement": "Cmax", "setting": "[3]; oral, 25 mg single dose", "result": 23.1, "unit": "ng/mL"}, {"measurement": "half-life", "setting": "[3]; oral, 25 mg single dose", "result": 12.5, "unit": "h"}, {"measurement": "concentration at 8 h", "setting": "[3]; oral, 25 mg single dose", "result": 5.7, "unit": "ng/mL"}, {"measurement": "Vd/F", "setting": "[3]; oral, 25 mg single dose", "result": 1650, "unit": "L"}, {"measurement": "Tmax", "setting": "[3]; oral, 25 mg single dose, median, read-out: Tmax", "result": 1, "unit": "h"}, {"measurement": "AUC(0-t)", "setting": "[3]; oral, 50 mg single dose", "result": 357, "unit": "ng·h/mL"}, {"measurement": "Cmax", "setting": "[3]; oral, 50 mg single dose", "result": 29.3, "unit": "ng/mL"}, {"measurement": "AUC(0-inf)", "setting": "[3]; oral, 50 mg single dose, N = 2", "result": 503, "unit": "ng·h/mL"}, {"measurement": "half-life", "setting": "[3]; oral, 50 mg single dose, N = 2", "result": 7.34, "unit": "h"}, {"measurement": "Vd/F", "setting": "[3]; oral, 50 mg single dose, N = 2", "result": 1050, "unit": "L"}, {"measurement": "concentration at 8 h", "setting": "[3]; oral, 50 mg single dose", "result": 7.83, "unit": "ng/mL"}, {"measurement": "Tmax", "setting": "[3]; oral, 50 mg single dose, median, read-out: Tmax", "result": 2, "unit": "h"}, {"measurement": "Tmax", "setting": "[3]; single oral doses 1 to 50 mg, fasted subjects, read-out: median Tmax, range across doses", "result": "1 to 2.5", "unit": "h"}, {"measurement": "fold change in geometric mean AUC (AUClast) for 50-fold change in dose", "setting": "[3]; single doses 1 to 50 mg", "result": 29, "unit": "fold"}, {"measurement": "fold change in geometric mean Cmax for 50-fold change in dose", "setting": "[3]; single doses 1 to 50 mg", "result": 9, "unit": "fold"}, {"measurement": "fold change in AUC and Cmax for 5-fold change in dose", "setting": "[4]; IH patients, 5 to 25 mg", "result": "approximately 3 fold"}, {"measurement": "Cmax", "setting": "[4]; 5 mg, IH, n = 7", "result": 11.8, "unit": "ng/mL"}, {"measurement": "AUC(0-t)", "setting": "[4]; 5 mg, IH, n = 7", "result": 78.9, "unit": "ng·h/mL"}, {"measurement": "Cmax", "setting": "[4]; 12 mg, IH, n = 7", "result": 18.1, "unit": "ng/mL"}, {"measurement": "AUC(0-t)", "setting": "[4]; 12 mg, IH, n = 7", "result": 156, "unit": "ng·h/mL"}, {"measurement": "Cmax", "setting": "[4]; 25 mg, IH, N = 8", "result": 32.2, "unit": "ng/mL"}, {"measurement": "AUC(0-t)", "setting": "[4]; 25 mg, IH, N = 8", "result": 230, "unit": "ng·h/mL"}, {"measurement": "Tmax", "setting": "[4]; 5 mg, IH, median, n = 7, read-out: Tmax", "result": 1.5, "unit": "h"}, {"measurement": "Tmax", "setting": "[4]; 12 mg, IH, median, n = 7, read-out: Tmax", "result": 3, "unit": "h"}, {"measurement": "Tmax", "setting": "[4]; 25 mg, IH patients, 5, 12, 25 mg, read-out: median tmax, range across doses", "result": "1.5 to 3", "unit": "h"}, {"measurement": "Tmax", "setting": "[4]; 25 mg, IH, median, N = 8, read-out: Tmax", "result": 1.5, "unit": "h"}]}
